Patent US6914045B2, “Glycopeptide antibiotics” (Wyeth Holdings Corporation, priority 2001, dated 2005)
In brackets after ≈: the same amount, converted by molar mass.

Experiments:
Assay in all cases: in vitro antibacterial evaluation, MIC by broth dilution
Type in all cases: cell-based
[1] = test system: Streptococcus sp.; settings: broth dilution, 18 hours at 35° C.
In short: (§1)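 Step 1: dilute antibiotic across 64-0.06 μg/mL in Muller-Hinton II […]. Step 2: inoculate at 5×10^5 CFU/mL.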

[2] = test system: Enterococcus sp.; settings: broth dilution, 18 hours at 35° C.
In short: as §1

[3] = test system: Staphylococcus sp.; settings: broth dilution, 18 hours at 35° C.
In short: as §1

[4] = test system: Escherichia coli; settings: 18 hours at 35° C.

MIC Streptococcus agalactiae (GC 4564) [1]: 0.5 µg/mL (≈ 0.357 µM)
MIC Streptococcus pneumoniae (ATCC 6301) [1]: 0.25 µg/mL (≈ 0.179 µM)
MIC Streptococcus pneumoniae (GC 1894) [1]: 0.12 µg/mL (≈ 0.0857 µM)
MIC Streptococcus pneumoniae (GC 4565) [1]: 0.25 µg/mL (≈ 0.179 µM)
MIC Streptococcus pyogenes (GC 4563) [1]: 0.5 µg/mL (≈ 0.357 µM)
MIC Streptococcus pneumoniae (ATCC 6301) ([1]; inoculum 5×10^5 CFU/mL, strain ATCC 6301): 0.25 µg/mL (≈ 0.179 µM)
MIC Streptococcus pneumoniae (GC 1894) ([1]; inoculum 5×10^5 CFU/mL, strain GC 1894): 0.12 µg/mL (≈ 0.0857 µM)
MIC Streptococcus pyogenes (GC 4563) ([1]; inoculum 5×10^5 CFU/mL, strain GC 4563): 0.5 µg/mL (≈ 0.357 µM)
MIC Streptococcus agalactiae (GC 4564) ([1]; inoculum 5×10^5 CFU/mL, strain GC 4564): 0.5 µg/mL (≈ 0.357 µM)
MIC Streptococcus pneumoniae (GC 4565) ([1]; inoculum 5×10^5 CFU/mL, strain GC 4565): 0.25 µg/mL (≈ 0.179 µM)
MIC Enterococcus avium (GC 4558) [2]: 8 µg/mL (≈ 5.72 µM)
MIC Enterococcus faecalis (ATCC 29212) [2]: 8 µg/mL (≈ 5.72 µM)
MIC Enterococcus faecalis (GC 2242) [2]: 4 µg/mL (≈ 2.86 µM)
MIC Enterococcus faecalis (GC 2691) [2]: 8 µg/mL (≈ 5.72 µM)
MIC Enterococcus faecalis (GC 3059) [2]: 8 µg/mL (≈ 5.72 µM)
MIC Enterococcus faecalis (GC 4552) [2]: 8 µg/mL (≈ 5.72 µM)
MIC Enterococcus faecalis (GC 4553) [2]: 8 µg/mL (≈ 5.72 µM)
MIC Enterococcus faecalis (GC 4554) [2]: 8 µg/mL (≈ 5.72 µM)
MIC Enterococcus faecalis (GC 6189) [2]: 8 µg/mL (≈ 5.72 µM)
MIC Enterococcus faecium (GC 2243) [2]: 8 µg/mL (≈ 5.72 µM)
MIC Enterococcus faecium (GC 4556) [2]: 8 µg/mL (≈ 5.72 µM)
MIC Enterococcus faecium (GC 4557) [2]: 2 µg/mL (≈ 1.43 µM)
MIC Enterococcus faecalis (ATCC 29212) ([2]; strain ATCC 29212): 8 µg/mL (≈ 5.72 µM)
MIC Enterococcus faecium (GC 2243) ([2]; strain GC 2243): 8 µg/mL (≈ 5.72 µM)
MIC Enterococcus faecalis (GC 4552) ([2]; strain GC 4552): 8 µg/mL (≈ 5.72 µM)
MIC Enterococcus faecalis (GC 4553) ([2]; strain GC 4553): 8 µg/mL (≈ 5.72 µM)
MIC Enterococcus faecalis (GC 4554) ([2]; strain GC 4554): 8 µg/mL (≈ 5.72 µM)
MIC Enterococcus faecium (GC 4556) ([2]; strain GC 4556): 8 µg/mL (≈ 5.72 µM)
MIC Enterococcus faecium (GC 4557) ([2]; strain GC 4557): 2 µg/mL (≈ 1.43 µM)
MIC Enterococcus avium (GC 4558) ([2]; strain GC 4558): 8 µg/mL (≈ 5.72 µM)
MIC Enterococcus faecalis (GC 6189) ([2]; strain GC 6189): 8 µg/mL (≈ 5.72 µM)
MIC Enterococcus faecalis (GC 2242) ([2]; inoculum 5×10^5 CFU/mL, strain GC 2242): 4 µg/mL (≈ 2.86 µM)
MIC Enterococcus faecalis (GC 2691) ([2]; inoculum 5×10^5 CFU/mL, strain GC 2691): 8 µg/mL (≈ 5.72 µM)
MIC Enterococcus faecalis (GC 3059) ([2]; inoculum 5×10^5 CFU/mL, strain GC 3059): 8 µg/mL (≈ 5.72 µM)
MIC Coagulase Negative Staphylococcus (GC 4547) [3]: 1 µg/mL (≈ 0.715 µM)
MIC Coagulase Negative Staphylococcus (GC 4548) [3]: 1 µg/mL (≈ 0.715 µM)
MIC Coagulase Negative Staphylococcus (GC 4549) [3]: 0.5 µg/mL (≈ 0.357 µM)
MIC Coagulase Negative Staphylococcus (GC 4551) [3]: 2 µg/mL (≈ 1.43 µM)
MIC Coagulase Negative Staphylococcus (GC 6257) [3]: 1 µg/mL (≈ 0.715 µM)
MIC Staphylococcus aureus (ATCC 29213) [3]: 2 µg/mL (≈ 1.43 µM)
MIC Staphylococcus aureus (GC 1131) [3]: 2 µg/mL (≈ 1.43 µM)
MIC Staphylococcus aureus (GC 3051) [3]: 2 µg/mL (≈ 1.43 µM)
MIC Staphylococcus aureus (GC 3053) [3]: 2 µg/mL (≈ 1.43 µM)
MIC Staphylococcus aureus (GC 4541) [3]: 2 µg/mL (≈ 1.43 µM)
MIC Staphylococcus aureus (GC 4542) [3]: 2 µg/mL (≈ 1.43 µM)
MIC Staphylococcus aureus (GC 4544) [3]: 2 µg/mL (≈ 1.43 µM)
MIC Staphylococcus aureus (GC 4545) [3]: 2 µg/mL (≈ 1.43 µM)
MIC Staphylococcus aureus-SMITH (GC 4543) [3]: 2 µg/mL (≈ 1.43 µM)
MIC Staphylococcus aureus (ATCC 29213) ([3]; strain ATCC 29213): 2 µg/mL (≈ 1.43 µM)
MIC Staphylococcus aureus (GC 1131) ([3]; strain GC 1131): 2 µg/mL (≈ 1.43 µM)
MIC Staphylococcus aureus (GC 3051) ([3]; strain GC 3051): 2 µg/mL (≈ 1.43 µM)
MIC Staphylococcus aureus (GC 3053) ([3]; strain GC 3053): 2 µg/mL (≈ 1.43 µM)
MIC Staphylococcus aureus (GC 4541) ([3]; strain GC 4541): 2 µg/mL (≈ 1.43 µM)
MIC Staphylococcus aureus (GC 4542) ([3]; strain GC 4542): 2 µg/mL (≈ 1.43 µM)
MIC Staphylococcus aureus-SMITH (GC 4543) ([3]; strain GC 4543): 2 µg/mL (≈ 1.43 µM)
MIC Staphylococcus aureus (GC 4544) ([3]; strain GC 4544): 2 µg/mL (≈ 1.43 µM)
MIC Staphylococcus aureus (GC 4545) ([3]; strain GC 4545): 2 µg/mL (≈ 1.43 µM)
MIC Coagulase Negative Staphylococcus (GC 4547) ([3]; strain GC 4547): 1 µg/mL (≈ 0.715 µM)
MIC Coagulase Negative Staphylococcus (GC 4548) ([3]; strain GC 4548): 1 µg/mL (≈ 0.715 µM)
MIC Coagulase Negative Staphylococcus (GC 4549) ([3]; strain GC 4549): 0.5 µg/mL (≈ 0.357 µM)
MIC Coagulase Negative Staphylococcus (GC 4551) ([3]; strain GC 4551): 2 µg/mL (≈ 1.43 µM)
MIC Coagulase Negative Staphylococcus (GC 6257) ([3]; strain GC 6257): 1 µg/mL (≈ 0.715 µM)
MIC Escherichia coli (ATCC 25922) [4]: 64 µg/mL (≈ 45.7 µM)
MIC Escherichia coli (GC 4559) [4]: 64 µg/mL (≈ 45.7 µM)
MIC Escherichia coli (GC 4560) [4]: 1 µg/mL (≈ 0.715 µM)
SMILES: Cc1ccc(COCC2OC(OC3C(CO)OC(Oc4ccc(CC5NC(=O)C(C(C)c6ccccc6)NC(=O)CNC(=O)C(CO)NC(=O)C(C(O)C6CNC(=N)N6C6OC(CO)C(O)C(O)C6O)NC(=O)C(C(O)C6CNC(=N)N6)NC5=O)cc4)C(O)C3O)C(O)C(O)C2O)cc1 (stereo not shown) [Example 234]
MIC Staphylococcus haemolyticus (GC 4546) [3]: 1 µg/mL (≈ 0.715 µM)
MIC Staphylococcus haemolyticus (GC 4546) ([3]; strain GC 4546): 1 µg/mL (≈ 0.715 µM)
